Reference: patent US20220017486A1, “DOCK1-INHIBITING COMPOUND AND USE THEREOF” (KYUSHU UNIVERSITY, NATIONAL UNIVERSITY CORPORATION, priority 2018, published 2022)
Entries after “also recorded” stand apart in the source; their conditions may differ.

Experiments:
[1] = system: mouse lung carcinoma cell line (3LL cells); assay: Cell invasion inhibition assay (Matrigel invasion chamber); type: cell-based; settings: in words
In short: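 Matrigel invasion chambers (8 μm pores); cells in serum-free DMEM above, 10% FCS DMEM below, compound in both, 0.2% DMSO final. 3LL (K-Ras G12C), PANC02 and MDA-MB-157 (Rac1 P29S) cultured 22 h (3LL, PANC02) or 48 h (MDA-MB-157) at 37° C. Invaded cells Diff-Quick-stained and counted; % invasion vs DMSO control, % inhibition = 100 − % invasion.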

[2] = system: CCL21-stimulated T cells (mouse spleen cells); assay: T lymphocyte migration towards CCL21 (Transwell); type: cell-based; settings: in words, 2-hour incubation
Description: In view of the above, the effect of RT-22 (Production Example 1A), which serves as a representative of the compounds of the present invention, on the lymphocyte migration was studied. Specifically, mouse spleen cells (1×10^7 cells/mL) were first precultured at 37° C. for 1 hour in 0.5 mass % BSA-containing RPMI-1640 (Transwell medium), to which DMSO alone or DMSO in which a predetermined concentration of each test compound was dissolved was added. Subsequently, 500 μL of Transwell medium containing 300 ng/mL of CCL21 and DMSO in which a predetermined concentration of each test compound was dissolved was added to a 24-well plate. Then, Transwell inserts (Corning, pore size: 5 μm) were placed in the wells, into which the precultured mouse spleen cells were loaded at 1×10^6 cells/100 μL.
After 2-hour incubation at 37° C., the cells that migrated to the lower chamber were collected and stained with PE-labeled anti-Thy1.2 antibody (53-2-1, BD Pharmingen) and APC-labeled anti-B220 antibody (RA-6B2, eBioscience). The percentage (%) of the migrated cells was calculated by dividing the number of Thy1.2^+ cells (T cells) in the lower chamber by the number of Thy1.2^+ cells (T cells) placed into the Transwell inserts.

Compound: COC(=O)c1cc(S(=O)(=O)N2CCCC2)cn1CC(=O)c1ccc(-c2cccc(C(F)(F)F)c2)cc1 [RT-22, methyl 1-(2-oxo-2-(3′-(trifluoromethyl)-[1,1′-biphenyl]-4-yl)ethyl)-4-(pyrrolidin-1-yl-sulfonyl)-1H-pyrrole-2-carboxylate]
- percent cell invasion inhibition compared with TBOPP [1]: higher percent cell invasion inhibition than TBOPP; also recorded: higher than those of TBOPP
- migration of CCL21-stimulated T cells [2]: no effect
